{"source": "patent US20060084704A1", "about": "“Methods and compositions for enhancing degradation of nuclear receptor transcription factors and uses thereof” (priority 2004, published 2006)", "key": {"PPAR gamma": {"target": "T1, PPAR gamma (Homo sapiens, UniProt P37231)", "T1 construct": "endogenous in cells; host or cells: LNCaP", "T1 sequence (P37231 1-505)": "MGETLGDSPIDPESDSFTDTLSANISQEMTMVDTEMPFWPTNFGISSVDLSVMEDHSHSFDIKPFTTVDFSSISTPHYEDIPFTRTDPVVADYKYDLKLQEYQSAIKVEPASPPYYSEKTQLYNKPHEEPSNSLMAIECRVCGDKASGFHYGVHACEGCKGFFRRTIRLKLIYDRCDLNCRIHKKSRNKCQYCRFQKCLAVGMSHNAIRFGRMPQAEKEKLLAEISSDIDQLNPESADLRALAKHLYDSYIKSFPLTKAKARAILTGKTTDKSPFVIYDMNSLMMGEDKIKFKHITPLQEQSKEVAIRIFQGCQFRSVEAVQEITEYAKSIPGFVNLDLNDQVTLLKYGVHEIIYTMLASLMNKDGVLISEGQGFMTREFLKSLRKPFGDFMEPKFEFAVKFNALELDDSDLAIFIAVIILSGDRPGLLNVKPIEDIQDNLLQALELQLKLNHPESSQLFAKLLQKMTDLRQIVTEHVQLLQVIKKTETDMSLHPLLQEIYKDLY", "assay": "Western blot of LNCaP cell lysates, PPAR gamma", "type": "cell-based", "details": "1 or 2 micromolar, 24 hours, presence or absence of DHT", "experimental": "(§1) Human prostate cancer LNCaP cells and T47D cells were plated at a density of 7×10^5 cells per 60 millimeter tissue culture dish in […] (RPMI) medium containing 10% FBS. The medium was changed to RPMI or DME medium containing 10% charcoal-stripped serum 24 hours later to deplete cellular androgens or estrogens. After another 24 hours, treatment with the test compounds began. The test dose of JC15 was 1 or 2 micromolar and the test does of JC9 was 1, 5 and 10 micromolar. LNCap cells also received dihydrotestosterone (DHT) (3 nanomolar). Control cells received a corresponding amount of the vehicle, dimethylsulfoxide (DMSO) (<0.04%) for an equivalent exposure time. Cells were incubated with JC15 for 24 or 48 hours, and were lysed in 250 microliters of 1×SDS/PAGE loading buffer. Approximately 40 micrograms of total cellular protein was loaded in each lane of a pre-cast gel (NuPAGE, Invitrogen). Protein separation and transfer were performed following the manufacturer's instructions.\n(§2) For the prostate cell lysates, androgen receptor (AR) protein was visualized by incubating the resultant membranes with an anti-AR antibody (BD-PharMingen), followed by chemiluminescence detection (ECL Plus, Amersham). […] The resultant protein signals were quantified using densitometry and NIH ImageJ software."}, "retinoid X receptor": {"tested_on": "retinoid X receptor", "assay": "Western blot of LNCaP cell lysates, RXR", "type": "cell-based, human", "details": "1 or 2 micromolar, 24 hours, presence or absence of DHT", "experimental": "as §1, §2"}}, "data": [{"smiles": "CCOC(=O)CCC(C(=O)C=Cc1ccc(O)c(OC)c1)C(=O)C=Cc1ccc(O)c(OC)c1", "note": "(centres unmarked) [JC15, 7-(4-hydroxy-3-methoxyphenyl)-4-[3-(4-hydroxy-3-methoxyphenyl)acryloyl]-5-oxo-hept-6-enoic acid ethyl ester]", "values": [{"measurement": "cellular concentration of PPAR gamma", "setting": "PPAR gamma", "result": "did not substantially affect"}, {"measurement": "cellular concentration of retinoid X receptor", "setting": "retinoid X receptor", "result": "did not substantially affect"}]}]}
